What was measured:
Format in all cases: functional
Staphylococcus aureus [1] = assay: Decrease in clpC expression in biofilm-associated cells of epidemic methicillin-resistant Staphylococcus aureus isolate 16-2 at 4 times MIC incubated for 1 hr by RT-PCR relative to untreated control
Staphylococcus aureus [2] = assay: Decrease in tst gene expression in biofilm-associated cells of epidemic methicillin-resistant Staphylococcus aureus isolate 16 at 4 times MIC incubated for 1 hr by RT-PCR relative to untreated control
Staphylococcus aureus [3] = assay: Decrease in capG expression in biofilm-associated cells of epidemic methicillin-resistant Staphylococcus aureus isolate 15 at 4 times MIC incubated for 1 hr by RT-PCR relative to untreated control
Staphylococcus aureus [4] = assay: Increase in cna expression in biofilm-associated cells of epidemic methicillin-resistant Staphylococcus aureus isolate 16-1 at 4 times MIC incubated for 1 hr by RT-PCR relative to untreated control
Staphylococcus aureus [5] = assay: Decrease in icaC gene expression in biofilm-associated cells of epidemic methicillin-resistant Staphylococcus aureus isolate 16 at 4 times MIC incubated for 1 hr by RT-PCR relative to untreated control
Staphylococcus aureus [6] = assay: Increase in cspB gene expression in biofilm-associated cells of epidemic methicillin-resistant Staphylococcus aureus isolate 16 at 4 times MIC incubated for 1 hr by whole genome microarray relative to untreated control
Staphylococcus aureus [7] = assay: Increase in dltA gene expression in biofilm-associated cells of epidemic methicillin-resistant Staphylococcus aureus isolate 16 at 4 times MIC incubated for 1 hr by whole genome microarray relative to untreated control
Staphylococcus aureus [8] = assay: Increase in ssaA gene expression in biofilm-associated cells of epidemic methicillin-resistant Staphylococcus aureus isolate 16 at 4 times MIC incubated for 1 hr by whole genome microarray relative to untreated control
Staphylococcus aureus [9] = assay: Decrease in capB gene expression in biofilm-associated cells of epidemic methicillin-resistant Staphylococcus aureus isolate 16 at 4 times MIC incubated for 1 hr by whole genome microarray relative to untreated control
Staphylococcus aureus [10] = assay: Decrease in tst gene expression in biofilm-associated cells of epidemic methicillin-resistant Staphylococcus aureus isolate 16 at 4 times MIC incubated for 1 hr by whole genome microarray relative to untreated control
Staphylococcus aureus [11] = assay: Decrease in clpC gene expression in biofilm-associated cells of epidemic methicillin-resistant Staphylococcus aureus isolate 16 at 4 times MIC incubated for 1 hr by whole genome microarray relative to untreated control
Staphylococcus aureus [12] = assay: Increase in rplJ gene expression in biofilm-associated cells of epidemic methicillin-resistant Staphylococcus aureus isolate 16 at 4 times MIC incubated for 1 hr by whole genome microarray relative to untreated control
Staphylococcus aureus [13] = assay: Increase in gapR gene expression in biofilm-associated cells of epidemic methicillin-resistant Staphylococcus aureus isolate 16 at 4 times MIC incubated for 1 hr by whole genome microarray relative to untreated control
Staphylococcus aureus [14] = assay: Decrease in cap8H gene expression in biofilm-associated cells of epidemic methicillin-resistant Staphylococcus aureus isolate 16 at 4 times MIC incubated for 1 hr by whole genome microarray relative to untreated control
Staphylococcus aureus [15] = assay: Increase in rpsH gene expression in biofilm-associated cells of epidemic methicillin-resistant Staphylococcus aureus isolate 16 at 4 times MIC incubated for 1 hr by whole genome microarray relative to untreated control
Staphylococcus aureus [16] = assay: Increase in fnbB gene expression in biofilm-associated cells of epidemic methicillin-resistant Staphylococcus aureus isolate 16 at 4 times MIC incubated for 1 hr by whole genome microarray relative to untreated control
Staphylococcus aureus [17] = assay: Increase in tsf gene expression in biofilm-associated cells of epidemic methicillin-resistant Staphylococcus aureus isolate 16 at 4 times MIC incubated for 1 hr by whole genome microarray relative to untreated control
Staphylococcus aureus [18] = assay: Increase in rho gene expression in biofilm-associated cells of epidemic methicillin-resistant Staphylococcus aureus isolate 16 at 4 times MIC incubated for 1 hr by whole genome microarray relative to untreated control
Staphylococcus aureus [19] = assay: Decrease in clpB gene expression in biofilm-associated cells of epidemic methicillin-resistant Staphylococcus aureus isolate 16 at 4 times MIC incubated for 1 hr by whole genome microarray relative to untreated control
Staphylococcus aureus [20] = assay: Increase in nusG gene expression in biofilm-associated cells of epidemic methicillin-resistant Staphylococcus aureus isolate 16 at 4 times MIC incubated for 1 hr by whole genome microarray relative to untreated control
Staphylococcus aureus [21] = assay: Decrease in capG gene expression in biofilm-associated cells of epidemic methicillin-resistant Staphylococcus aureus isolate 16 at 4 times MIC incubated for 1 hr by whole genome microarray relative to untreated control
Staphylococcus aureus [22] = assay: Increase in clfB gene expression in biofilm-associated cells of epidemic methicillin-resistant Staphylococcus aureus isolate 16 at 4 times MIC incubated for 1 hr by whole genome microarray relative to untreated control
Staphylococcus aureus [23] = assay: Decrease in clfB expression in biofilm-associated cells of epidemic methicillin-resistant Staphylococcus aureus isolate 16-2 at 4 times MIC incubated for 1 hr by RT-PCR relative to untreated control
Staphylococcus aureus [24] = assay: Decrease in capC gene expression in biofilm-associated cells of epidemic methicillin-resistant Staphylococcus aureus isolate 16 at 4 times MIC incubated for 1 hr by whole genome microarray relative to untreated control
Staphylococcus aureus [25] = assay: Increase in rpsE gene expression in biofilm-associated cells of epidemic methicillin-resistant Staphylococcus aureus isolate 16 at 4 times MIC incubated for 1 hr by whole genome microarray relative to untreated control
Staphylococcus aureus [26] = assay: Decrease in asp23 gene expression in biofilm-associated cells of epidemic methicillin-resistant Staphylococcus aureus isolate 16 at 4 times MIC incubated for 1 hr by whole genome microarray relative to untreated control
Staphylococcus aureus [27] = assay: Decrease in mnhG expression in biofilm-associated cells of epidemic methicillin-resistant Staphylococcus aureus isolate 15 at 4 times MIC incubated for 1 hr by RT-PCR relative to untreated control
Staphylococcus aureus [28] = assay: Decrease in polA gene expression in biofilm-associated cells of epidemic methicillin-resistant Staphylococcus aureus isolate 16 at 4 times MIC incubated for 1 hr by whole genome microarray relative to untreated control
Staphylococcus aureus [29] = assay: Increase in mnhG gene expression in biofilm-associated cells of epidemic methicillin-resistant Staphylococcus aureus isolate 16 at 4 times MIC incubated for 1 hr by RT-PCR relative to untreated control
Staphylococcus aureus [30] = assay: Increase in fnbB expression in biofilm-associated cells of epidemic methicillin-resistant Staphylococcus aureus isolate 15 at 4 times MIC incubated for 1 hr by RT-PCR relative to untreated control
Staphylococcus aureus [31] = assay: Decrease in dinR gene expression in biofilm-associated cells of epidemic methicillin-resistant Staphylococcus aureus isolate 16 at 4 times MIC incubated for 1 hr by whole genome microarray relative to untreated control
Staphylococcus aureus [32] = assay: Increase in mnhD gene expression in biofilm-associated cells of epidemic methicillin-resistant Staphylococcus aureus isolate 16 at 4 times MIC incubated for 1 hr by whole genome microarray relative to untreated control
Staphylococcus aureus [33] = assay: Increase in ssaA expression in biofilm-associated cells of epidemic methicillin-resistant Staphylococcus aureus isolate 16-2 at 4 times MIC incubated for 1 hr by RT-PCR relative to untreated control
Staphylococcus aureus [34] = assay: Decrease in capG gene expression in biofilm-associated cells of epidemic methicillin-resistant Staphylococcus aureus isolate 16 at 4 times MIC incubated for 1 hr by RT-PCR relative to untreated control

SMILES: CN(C)c1cc(NC(=O)CNC(C)(C)C)c(O)c2c1C[C@H]1C[C@H]3[C@H](N(C)C)C(O)=C(C(N)=O)C(=O)[C@@]3(O)C(O)=C1C2=O [TIGECYCLINE]
- fold change (FC) (Staphylococcus aureus [1]): 19.87
- fold change (FC) (Staphylococcus aureus [2]): 1.51
- fold change (FC) (Staphylococcus aureus [3]): 1.58
- fold change (FC) (Staphylococcus aureus [4]): 3.42
- fold change (FC) (Staphylococcus aureus [5]): 2.23
- fold change (FC) (Staphylococcus aureus [6]): 5.59
- fold change (FC) (Staphylococcus aureus [7]): 2.63
- fold change (FC) (Staphylococcus aureus [8]): 2.84
- fold change (FC) (Staphylococcus aureus [9]): 2.08
- fold change (FC) (Staphylococcus aureus [10]): 2.39
- fold change (FC) (Staphylococcus aureus [11]): 2.44
- fold change (FC) (Staphylococcus aureus [12]): 12.75
- fold change (FC) (Staphylococcus aureus [13]): 9.12
- fold change (FC) (Staphylococcus aureus [14]): 2.18
- fold change (FC) (Staphylococcus aureus [15]): 14.86
- fold change (FC) (Staphylococcus aureus [16]): 5.34
- fold change (FC) (Staphylococcus aureus [17]): 3.23
- fold change (FC) (Staphylococcus aureus [18]): 2.15
- fold change (FC) (Staphylococcus aureus [19]): 2.49
- fold change (FC) (Staphylococcus aureus [20]): 4.34
- fold change (FC) (Staphylococcus aureus [21]): 2.3
- fold change (FC) (Staphylococcus aureus [22]): 4
- fold change (FC) (Staphylococcus aureus [23]): 1.18
- fold change (FC) (Staphylococcus aureus [24]): 3.14
- fold change (FC) (Staphylococcus aureus [25]): 11.01
- fold change (FC) (Staphylococcus aureus [26]): 8.61
- fold change (FC) (Staphylococcus aureus [27]): 1.64
- fold change (FC) (Staphylococcus aureus [28]): 2.11
- fold change (FC) (Staphylococcus aureus [29]): 5.16
- fold change (FC) (Staphylococcus aureus [30]): 1.22
- fold change (FC) (Staphylococcus aureus [31]): 3.31
- fold change (FC) (Staphylococcus aureus [32]): 1.93
- fold change (FC) (Staphylococcus aureus [33]): 1.72
- fold change (FC) (Staphylococcus aureus [34]): 1.01

— ChEMBL document CHEMBL1240349, “Influence of tigecycline on expression of virulence factors in biofilm-associated cells of methicillin-resistant Staphylococcus aureus” (2010)
